Experiments:
[1] = Cytotoxicity against human RD cells assessed as reduction in cell viability incubated for 24 hrs by MTT assay; conditions: RD cells
[2] = Inhibition of capsid protein VP1 in Enterovirus 71 (FY)-Luc infected in human RD cells assessed as reduction in virus-induced cell death preincubated for 24 hrs followed by […] substrate addition and measured after 5 mins by chemiluminescence analysis; format: cell-based, Enterovirus A71; conditions: Enterovirus A
in vivo [3] = conditions: zebrafish
Description: Acute toxicity in juvenile zebrafish assessed as fatality rate at 150 uM after 24 hrs

[4] = Acute toxicity in juvenile zebrafish assessed as fatality rate at 100 uM after 48 hrs; conditions: in vivo
[5] = Acute toxicity in juvenile zebrafish assessed as fatality rate at 200 uM after 24 hrs; conditions: in vivo
[6] = Acute toxicity in juvenile zebrafish assessed as fatality rate at 100 uM after 24 hrs; conditions: in vivo
[7] = Acute toxicity in juvenile zebrafish assessed as fatality rate at 200 uM after 48 hrs; conditions: in vivo
[8] = Acute toxicity in juvenile zebrafish assessed as fatality rate at 50 uM after 48 hrs; conditions: in vivo
in vivo [9] = conditions: zebrafish; remark: listed apart in the source
Description: Acute toxicity in juvenile zebrafish assessed as fatality rate at 150 uM after 48 hrs

[10] = Acute toxicity in juvenile zebrafish assessed as fatality rate at 50 uM after 24 hrs; conditions: in vivo
[11] = Acute toxicity in juvenile zebrafish assessed as fatality rate at 20 uM after 24 hrs; conditions: in vivo
[12] = Acute toxicity in juvenile zebrafish assessed as fatality rate at 20 uM after 48 hrs; conditions: in vivo
[13] = Acute toxicity in juvenile zebrafish assessed as pericarditis at 100 uM after 24 hrs; parameters: species or system Danio rerio; conditions: in vivo

Compound	CC50 at 24 h [1]	EC50 [2]	mortality at 24 h, 150 µM (in vivo [3])	mortality at 48 h, 100 µM [4]	mortality at 24 h, 200 µM [5]	mortality at 24 h, 100 µM [6]	mortality at 48 h, 200 µM [7]	mortality at 48 h, 50 µM [8]	mortality at 48 h, 150 µM (in vivo [9])	mortality at 24 h, 50 µM [10]	mortality at 24 h, 20 µM [11]	mortality at 48 h, 20 µM [12]	Activity [13]
CCc1nc(-c2cc(C)c(OCCC(C)CCN3CCN(c4ccnc(N)c4)C3=O)c(C)c2)no1 (stereo not given)	15.7 µM	> 25 nM											
CCO/N=C/c1ccc(OCCC(C)CCN2CCN(c3ccnc(O)c3)C2=O)cc1 (stereo not given)	> 100 µM	> 25 nM											
CCO/N=C/c1ccc(OCCC(C)CCN2CCN(c3cccc(N)c3)C2=O)cc1 (stereo not given)	> 100 µM	> 25 nM											
CCc1nc(-c2ccc(OCCC(C)CCN3CCN(c4ccnc(N)c4)C3=O)cc2)no1 (stereo not given)	> 100 µM	0.0084 nM	80%	100%	100%	30%	100%	100%	100%	10%	40%	60%	
CCO/N=C/c1ccc(OCCC(C)CCN2CCN(c3ccccc3)C2=O)cc1 (stereo not given)	> 100 µM	1.12 nM	100%	100%	100%	100%	100%	100%	100%	100%	100%	100%	
CCO/N=C/c1cc(C)c(OCCC(C)CCN2CCN(c3ccnc(N)c3)C2=O)c(C)c1 (stereo not given)	12.8 µM	> 25 nM											
CC(CCOc1ccc(/C=N/O)cc1)CCN1CCN(c2ccnc(N)c2)C1=O (stereo not given)	> 100 µM	> 25 nM											
CCCc1nc(-c2ccc(OCCC(C)CCN3CCN(c4ccnc(N)c4)C3=O)cc2)no1 (stereo not given)	> 100 µM	0.15 nM	100%	100%	100%	100%	100%	100%	100%	100%	40%	60%	
CC(CCOc1ccc(-c2noc(C(F)(F)F)n2)cc1)CCN1CCN(c2ccnc(N)c2)C1=O (stereo not given)	48.1 µM	0.537 nM	80%	100%	100%	70%	100%	50%	100%	30%	0%	0%	
CC(=O)Nc1cc(N2CCN(CCCCCOc3ccc(-c4noc(C)n4)cc3)C2=O)ccn1	> 100 µM	> 25 nM											
CC(CCN1CCN(Cc2ccccc2)CC1)CCN1CCN(c2ccnc(N)c2)C1=O (stereo not given)	> 100 µM	> 25 nM											
CCONCc1ccc(OCCC(C)CCN2CCN(c3ccnc(N)c3)C2=O)cc1 (stereo not given)	7.37 µM	0.0119 nM											
CCO/N=C/c1ccc(OCCCCCN2CCN(c3ccnc(N)c3)C2=O)cc1	59 µM	0.072 nM	100%	100%	100%	100%	100%	100%	100%	0%	20%	20%	
CCCc1nc(-c2cc(C)c(OCCC(C)CCN3CCN(c4ccnc(N)c4)C3=O)c(C)c2)no1 (stereo not given)	14.1 µM	> 25 nM											
Cc1cc(-c2noc(C(F)(F)F)n2)cc(C)c1OCCC(C)CCN1CCN(c2ccnc(N)c2)C1=O (stereo not given)	> 100 µM	> 25 nM											
CCO/N=C/c1ccc(OCCC(C)CCN2CCN(c3ccnc(OC)c3)C2=O)cc1 (stereo not given)	> 100 µM	10 nM	100%	100%	100%	100%	100%	100%	100%	100%	100%	100%	
CCO/N=C/c1ccc(OCC#CCN2CCN(c3ccnc(N)c3)C2=O)cc1	> 100 µM	> 25 nM											
Cc1nc(-c2ccc(OCCC(C)CCN3CCN(c4ccnc(N)c4)C3=O)cc2)no1 (stereo not given)	66.1 µM	0.0061 nM	10%	100%	100%	0%	100%	0%	100%	0%	0%	0%	
CCO/N=C/c1ccc(OCCCCN2CCN(c3ccnc(N)c3)C2=O)cc1	> 100 µM	> 25 nM											
CC(CCOc1ccc(-c2noc(C(C)(C)C)n2)cc1)CCN1CCN(c2ccnc(N)c2)C1=O (stereo not given)	55 µM	0.0092 nM	100%	100%	100%	80%	100%	0%	100%	0%	0%	0%	Toxic
Cc1nc(-c2cc(C)c(OCCC(C)CCN3CCN(c4ccnc(N)c4)C3=O)c(C)c2)no1 (stereo not given)	28.8 µM	> 25 nM											
CCONC(=O)c1ccc(OCCC(C)CCN2CCN(c3ccnc(N)c3)C2=O)cc1 (stereo not given)	> 100 µM	> 25 nM											

Source: ChEMBL document CHEMBL4376886, “Design, Synthesis, and Evaluation of Novel Enterovirus 71 Inhibitors as Therapeutic Drug Leads for the Treatment of Human Hand, Foot, and Mouth Disease” (J Med Chem, 2020)
